pEC50, pIC50: −log10 of the molar value.

The subject of assay [1] is SK-MES-1. The assay is described as follows: Proliferation inhibition experiment, SK-MES-1 (NSCLC). It counts as cell-based. The following applies: EGFR Amplification, KRAS WT. How it is done: (§1) • (1) NSCLC: plated at 1500-2500 cells/100 μL in a 96-well low-adsorption plate (Corning, CLS7007-24EA) for 3D cell culture, in which the following cell lines and specific amounts were used: • NSCLC: 2000 cells/100 μL/well • NCI-H292: Cell Bank of the Chinese Academy of Sciences, SCSP-582 • NCI-H322: Cobioer, CBP60134 • NCI-H1650: ATCC, CRL-5883 • NCI-H1975: ATCC, CRL-5908 • SK-MES-1: CoBioer, CBP60152 • NCI-H1703: ATCC, HTB-43 • PC9+hB7H3: constructed as described above • CRC and HNSCC: plated at 1500-2000 cells/100 μL in a 96-well white-bottom plate (NUNC, 136101) for 2D cell culture, in which the following cell lines and specific amounts were used: • CRC: 1500 cells/100 μL/well • CCK-81: CoBioer, CBP60581 • HT-55: CoBioer, CBP60012 • H508: CoBioer, CBP60795 • LS180: CoBioer, CBP60034 • HNSCC: 1500 cells/100 μL/well • TE-1: CoBioer, CBP60655 • Colo680: CoBioer, CBP60452. (2) The antibody molecules prepared in advance by dilution were added to the corresponding cell well plate, mixed well, and cultured in an incubator at 37° C. with 5% CO2 for 5 days. • (3) After 5 days of continuous culture for proliferation inhibition assay, the Cell-Titer reagent (Promega, G7572) prepared in advance was added to cell wells, the plate was left to stand at room temperature for 15-25 min in the dark, and then CRC and HNSCC cells were directly detected by a multimode microplate reader (Molecular Devices, Spectra MAXi3). • (4) NSCLC: Cell-Titer and the cell mixture were transferred to a 96-well white-bottom plate (NUNC, 136101) and detected by a multimode microplate reader (Molecular Devices, Spectra MAXi3).

Assay [2] deals with H1975. Description: ADCC report assay, H1975. It counts as cell-based. The following applies: EGFR L858R T790M, KRAS WT, effector/target 10:1, 20 h. As for the experimental part:
(§2) In the ADCC report assay, ADCC effector cells ((Promega, G7102)) are engineered cells in which FcRIIIa (V158) receptor is overexpressed into Jurkat T cells, which rapidly respond to ADCC through the NFAT-RE driving element within the Jurkat T cells.
(§3) • (1) Tumor cells (cell lines listed in Table 3) and ADCC effector cells (Promega, G7102) were mixed well (1.5E4 cells: 1.5E5 cells/well/100 μL (1.5E5: 1.5E6 cells/mL)) according to an effector/target ratio (10:1), and added to a 96-well white plate (NUNC, 136101). • (2) The antibody molecules prepared in advance by dilution were added to the corresponding cell well plates, mixed well, and cultured at 37° C. with 5% CO2 for 20 h. • (3) The Bio-glo reagent (Promega, G755B) prepared in advance was added to the cell well plate, the plate was left to stand at room temperature for 10-15 min in the dark, and then the cells were detected by a multimode microplate reader (Molecular Devices, Spectra MAXi3).

Assay [3] deals with H322. The assay is described as follows: ADCC report assay, H322. In kind it is cell-based. The following applies: EGFR WT, KRAS WT, effector/target 10:1, 20 h. As for the experimental part:
as §2, §3

The test system of assay [4] is H292. The assay is described as follows: Proliferation inhibition experiment, H292 (NSCLC). The settings on record: EGFR WT, KRAS WT. In kind it is cell-based. As for the experimental part: as §1
For assay [5], the system named is NCI-H358 tumor-bearing mice. Description: Anti-tumor efficacy in NCI-H358 tumor-bearing mice, combination with AMG510. It counts as in vivo, NOG mice. The settings on record: NCI-H358, NOG mice, day 33; for Tumor volume (mm^3): antibodies 10 mg/kg i.p. Q3-4D x4 (h-IgG 20 mg/kg), AMG510 10 mg/kg intragastric QD x14; for Tumor growth inhibition (%): antibodies 10 mg/kg i.p. Q3-4D x4, AMG510 10 mg/kg intragastric QD x14, vs h-IgG 20 mg/kg. How it is done: SPF female NOG mice (purchased from Beijing Vital River Laboratory Animal Technology Co., Ltd.) with certificate No. 1100112211001153625 were used in the experiment.
NCI-H358 cells were routinely subcultured for the subsequent in-vivo experiment. The cells were collected by centrifugation. Then the NCI-H358 cells were resuspended in an equal-proportion mixture of PBS (1×) and Matrigel Matrix (Corning) to prepare a cell suspension with a cell concentration of 25×10^6 cells/mL. On day 0, 0.2 mL of the cell suspension was taken and subcutaneously inoculated to the right abdominal area of NOG mice to establish NCI-H358 tumor-bearing mouse models.
Six days after the tumor cell inoculation, the tumor volume in each mouse was measured. The mice were grouped (with 7 mice in each group).
Administration was performed on days 6, 9, 12, and 15 after the inoculation of NCI-H358 cells. Mice were monitored for tumor volume and body weight twice a week. […] Mice were monitored for tumor volume twice a week, and were monitored for body weight every day during the administration, and twice a week after the end of administration. […] On day 33 after the inoculation, the relative tumor growth inhibition (TG1%) was calculated by the following formula: TG1%=100%×(control group tumor volume−treatment group tumor volume)/(control group tumor volume−control group tumor volume before administration).
Tumor volume measurement: The maximum length of major axis (L) and maximum length of minor axis (W) of tumors were measured with a vernier caliper, and tumor volume was calculated by the following formula: V=L×W^2/2. The mice were weighed using an electronic balance.

Assay [6] relates to H1703. The assay is described as follows: Proliferation inhibition experiment, H1703 (NSCLC). It counts as cell-based. The settings on record: H1703, EGFR Amplification, KRAS WT. As for the experimental part: as §1
Assay [7] deals with H1975. The assay is described as follows: Proliferation inhibition experiment, H1975 (NSCLC). In kind it is cell-based. The following applies: EGFR L858R T790M, KRAS WT. As for the experimental part:
as §1

The subject of assay [8] is SK-MES-1. Description: ADCC report assay, SK-MES-1. It counts as cell-based. The following applies: EGFR Amplification, KRAS WT, effector/target 10:1, 20 h. How it is done:
as §2, §3

Assay [9] relates to LS180. Description: Proliferation inhibition experiment, LS180 (CRC). It counts as cell-based. The settings on record: EGFR R521K, KRAS G12D. How it is done:
• (1) NSCLC: plated at 1500-2500 cells/100 μL in a 96-well low-adsorption plate (Corning, CLS7007-24EA) for 3D cell culture, in which the following cell lines and specific amounts were used: • NSCLC: 2000 cells/100 μL/well • NCI-H292: Cell Bank of the Chinese Academy of Sciences, SCSP-582 • NCI-H322: Cobioer, CBP60134 • NCI-H1650: ATCC, CRL-5883 • NCI-H1975: ATCC, CRL-5908 • SK-MES-1: CoBioer, CBP60152 • NCI-H1703: ATCC, HTB-43 • PC9+hB7H3: constructed as described above • CRC and HNSCC: plated at 1500-2000 cells/100 μL in a 96-well white-bottom plate (NUNC, 136101) for 2D cell culture, in which the following cell lines and specific amounts were used: • CRC: 1500 cells/100 μL/well • CCK-81: CoBioer, CBP60581 • HT-55: CoBioer, CBP60012 • H508: CoBioer, CBP60795 • LS180: CoBioer, CBP60034 • HNSCC: 1500 cells/100 μL/well • TE-1: CoBioer, CBP60655 • Colo680: CoBioer, CBP60452. […]

The pIC50 is the IC50 on a negative log10 scale, so that one unit is a factor of ten. Lower therefore signals a large IC50. As a reminder, the pEC50 is the negative decadic logarithm of the EC50, by convention in mol/L. A low value points to a large EC50. As to amivantamab [JNJ372], the “Max inhibition (%) Mean ± SD” value came to 66.1 ± 3.7% in assay [1], 64.5 ± 2.5% in assay [4], 44.3 ± 3.4% in [6] and 47.9 ± 3.0% in assay [7]. Moreover, the pIC50 in [1] (3D culture, 5 days) was 8.01; in [4] (3D culture, 5 days) it was 6.85; in assay [6] (3D culture, 5 days), 9.15; in assay [7] (3D culture, 5 days) it was 8.25. The negative logarithm of the EC50 (pEC50) is 10.20 in assay [2], 9.97 in assay [3] and 9.84 in [8]. For the same substance, in [5], the “Tumor volume (mm^3)” value worked out at 196 mm^3. In [5], the “Tumor growth inhibition (%)” value is recorded as 82%.
On to zalutumumab [Zalu mAb], for which the “Max inhibition (%) Mean ± SD” value in [1] is 67.8 ± 4.1%; in assay [4] it was 79.4 ± 1.6%; in assay [9] it was 41.0 ± 2.2%; in [6], 45.6 ± 3.8%; in assay [7], 51.0 ± 2.3%. The negative logarithm of the EC50 (pEC50) was 10.54 in assay [2], 11.22 in [3] and 10.96 in assay [8]. For the same substance, in [5], the “Tumor volume (mm^3)” value came out at 126 mm^3. Moreover, the “Tumor growth inhibition (%)” value in assay [5] was 111%.

The values are drawn from patent publication US20250381269A1, “BISPECIFIC ANTIBODY BINDING EGFR AND B7-H3” (FORTVITA BIOLOGICS (SINGAPORE) PTE. LTD., priority 2022, published 2025).
